According to patent US20250127857A1, “A COMPOSITION COMPRISING IL-36 AND/OR IL-18 FOR USE IN TREATING OCULAR DISORDERS” (THE PROVOST, FELLOWS, FOUNDATION SCHOLARS, & THE OTHER …, priority 2021, published 2025):

B1: IL-1α: human IL-1α (R&D systems) (protein, UniProt P01583 113-271, looked up)
Interleukin-1 alpha: SAPFSFLSNVKYNFMRIIKYEFILNDALNQSIIRANDQYLTAAALHNLDEAVKFDMGAYKSSKDDAKITVILRISKTQLYVTAQDEDQPVLLKEMPEIPKTITGSETNLLFFWETHGTKNYFTSVAHPNLFIATKQDYWVCLAGGPPSITDFQILENQA

Assays:
HRMEC [1] = test: MTS assay of HRMEC proliferation with VEGF and IL-18; assay type: cell-based, human; conditions: VEGF alone
Method: FIG. 17 illustrates HRMEC proliferation in response to VEGF is enhanced with IL-18 pre-treatment, wherein HRMECs were treated with increasing concentrations of VEGF alone or with a 24 hour pre-treatment of IL-18 at 10, 100 or 1000 ng/ml, wherein increasing VEGF induced an increase in cell proliferation which was enhanced following IL-18 treatment;
Cell viability was assessed using the CellTiter 96 AQueous One Solution cell proliferation MTS assay (Promega) as per the manufacturer's instructions. Cell monolayers were treated for times indicated where treatment supplemented media was then removed and incubated with 20 μl of CellTiter 96 AQueous One Solution in 100 μl of complete growth medium in a humidified incubator at 37° C. with 5% CO2for 1-4 hours. The absorbance of each well was measured at 490 nm using a SynergyMX plate reader (Biotek, Gen5™).

HRMEC [2] = test: Wound healing (scratch) assay in HRMEC, IL-18; assay type: cell-based, human; conditions: IL-18, VEGF, bFGF each 50 ng/ml, closure expressed as % closure
Method: FIG. 16 illustrates HRMEC migration in response to IL-18 and IL-1α stimulation, wherein confluent HRMEC monolayers were scratched with a pipette tip and treated with IL-18 (50 ng/ml) or IL-1α (10 ng/ml) along with bFGF (50 ng/ml) or VEGF (50 ng/ml) as positive controls, wherein images were taken immediately following scratch (0 hrs) and at 4, 8 and 24 hours following scratch, wherein images were analysed using ImageJ imaging software, wherein data are presented as mean±SEM of 6 separate experiments in triplicate, wherein data were analysed using 2way ANOVA with Dunnett's multiple comparison test. (*p<0.05, *p<0.01, ****p<0.0001);
Cells were seeded on to a 12-well plate and grown until they reached confluency. 24 hours prior to the scratch, culture medium was replaced with 0.5% Serum media without supplements for 24 hours to induce cell quiescence. Cell monolayers were scratched once down the centre of the well using a p200 pipette tip and washed once with warmed DPBS to remove debris then replaced with 0.5% serum supplemented media with experimental treatments. Images were acquired using an Olympus IX51 inverted microscope with Cell^A imaging software (Olympus). Images were taken at baseline immediately following scratch and at suitable timepoints for up to 24 (HRMECs) or 48 hours (BMVECs). The area within the scratch was quantified using ImageJ software, and each timepoint was normalised to its baseline and expressed as % closure.

IL-36R = conditions: HRMEC, VEGF treatment over timepoints
occludin = test: Occludin expression in HRMEC (qPCR and immunoblotting); assay type: cell-based, human; conditions: for expression of tight junction protein occludin: single cytokine
Method: FIG. 18 illustrates IL-18 drives expression of tight junction protein occludin and inhibits VEGF depletion of occluding, wherein HRMECS were treated with either VEGF, IL-18 or IL-1α for the timepoints indicated (top panel) and cells were prepared for RNA isolation and qPCR with expression of occluding measured, wherein HRMECs were treated with VEGF, IL-18 or IL-1 or combinations of these cytokines and cells were prepared for immunoblotting for expression of occludin and b-actin (lower panels);
Following transfer, membranes were blocked by incubating in 5% non-fat dried milk (Marvel) in TBS-T for 1 hour at room temperature whilst shaking. Membranes were incubated with primary antibody diluted in either 5% Marvel or BSA, depending on antibody specification, overnight at 4° C. with gentle agitation. Primary antibody was recovered and stored at −20. Membranes were washed three times in TBS-T for 5 minutes and membranes were incubated with secondary antibody, diluted in 5% Marvel, for 1 hour at room temperature. Secondary antibody was removed and discarded, and excess secondary was removed from the membranes by three 5-minute washes in TBS-T.
All RT-PCR assays were carried out using the SensiFAST SYBR Hi-ROX Kit (Bioline) with primers designed using Primer-BLAST (NCBI). For each target a master-mix comprising of 4 μl SYBR Green mix, 0.5 μl of Forward primer (4 μM) and 0.5 μl of Reverse primer (4 μM) along and 3 μl of RNAse free H2O was prepared and mixed thoroughly by vortexing. 8 μl of master-mix was added to each well of a 0.1 mL MicroAMP® Fast 96-well Reaction Plate (Applied Biosystems), along with 2 μl of cDNA and sealed using Optical adhesive film (Applied Biosystems) and spun down for 30 seconds in a centrifuge fitted with microplate rotor (Eppendorf) before running. Plate were run using a QuantStudio 3 real-time PCR System (Applied Biosystems) or the StepOnePlus Real-Time PCR System (Applied Biosystems), with run conditions set as: 50° C. for 2 mins, 95° C. for 10 minutes, 40 cycles of 95° C. for 15 seconds then 60° C. for 1 minute. To assess the quality of Primers a melt-curve stage was added: 95° C. for 1 second, 60° C. for 20 seconds, 95° C. for 1 second. Data were analysed using the QuantStudio™ Design & Analysis software (Applied Biosystems) and using the comparative Ct (ΔΔCt) method where test samples were normalised to endogenous control (β-Actin) followed by normalising the ΔCt of test samples to sample control (untreated sample), then calculating 2^−ΔΔCt to find the relative fold change of test samples over sample control.

[3] = tested on: cldn5, tricellulin, ZO-1 and VE-cadherin mRNA in HRMEC; test: Real-time qPCR of junction components; assay type: cell-based, human; conditions: 100 ng/ml IL-36β or 10 μM RepSox, 24 hours
Source text: […]

Molecule | HRMEC proliferation with increasing doses of VEGF (HRMEC [1]) | mean difference in wound closure vs no treatment (xdiff) (HRMEC [2]; 8 hours post scratch) | mean difference in wound closure vs no treatment (xdiff) (HRMEC [2]; 24 hours post scratch) | IL-36R expression (IL-36R) | expression of tight junction protein occludin (occludin) | ZO-1 transcript (qPCR) [3] | rescue of VEGF mediated occludin inhibition (occludin; combination with VEGF, immunoblotting)
VEGF | increase in proliferation up to 5 ng/ml | −9.35 | −12.25 | reduces IL-36R expression | reduced expression of occludin | – | –
Cc1cccc(-c2[nH]ncc2-c2ccc3ncccc3n2)n1 [RepSox] | – | – | – | – | – | appeared unaffected | –
FGF: bFGF (50 ng/ml) used as positive control in scratch assay | – | −4.366 | −28.4 | – | – | – | –
B1 | – | – | – | – | reduced expression of occludin | – | does not rescue VEGF mediated occludin inhibition
